According to patent US8192750B2, “Pharmaceutical composition for the treatment of otomycosis” (priority 2006, dated 2012):
“Also recorded” adds a separate entry of the source.

Legend:
[1] = solubility of griseofulvin in different solvents; type: physicochemical; conditions: mixtures with carriers
[2] = cited from earlier work

COC1=CC(=O)C[C@@H](C)[C@]12Oc1c(Cl)c(OC)cc(OC)c1C2=O [griseofulvin, Griseofulvin]
Solubility of griseofulvin in different solvents [1]: higher in admixture with high molecular weight substances, such as herbal agents (e.g. tea tree oil), but not in admixtures with saccharides or alcohol; also recorded: higher in mixtures with high molecular weight carriers such as herbal agents, but not with saccharides or alcohol
solubility in water [2]: insoluble in water
